# Like-named read-outs stand apart in the source and are kept apart here. Starred links: 1 amine or outer side, 2 acyl side, 3 side chain; linkers in the order of their positions; H or OH if unused. Residues, ends and D or L forms follow the SMILES beside them. Groups on a side chain read outwards from the residue. *: point of attachment. γGlu = O=C(O)[C@H](CCC(=O)[*:2])N[*:1]; Palmitoyl = CCCCCCCCCCCCCCCC(=O)*
# What was measured:
# [1] = type: in vitro ADME, rat
# Description: In this example, the serum stability of the incretin analogue […] was determined by the following steps: (1) The incretin analogues […] and the control (Dulaglutide) were formulated with 5 mM Tris-HCl, pH 8.5, and 0.02% TWEEN-80 solution into solutions at a concertration of 1.0 mg/ml, which were sterilized and filtered (0.22 μm, Millipore SLGP033RB), then diluted 10-fold with rat serum, mixed evenly and divided into sterile centrifuge tubes; […] (3) The GLP-1R agonist activity was detected.
# GLP-1R = target: T1, GLP-1R (Homo sapiens, UniProt P43220); test: GLP-1R agonist activity assay, luciferase reporter gene in stably transfected CHO-K1 cells; type: cell-based; settings: CRE-luciferase reporter, stimulation for 6 h
# T1 construct: expressed in transfected cells
# Source text: GLP-1R agonist activity was detected using luciferase reporter gene assay (Jonathan W Day et, al.: Nat Chem Biol. 2009 October; 5 (10): 749-57). Humanized GLP-1R gene was cloned into mammalian cell expression plasmid pCDNA3.1 to construct recombinant expression plasmid pCDNA3.1-GLP-1R, and at the same time, luciferase full-length gene was cloned into pCRE plasmid to get pCRE-Luc recombinant plasmid. The pcDNA3.1-GLP-1R and pCRE-Luc plasmids were transfected into CHO-K1 cells at a molar ratio of 1:10, and the stably transfected cell strains were screened. Cells were cultured in a 9-cm cell culture dish with DMEM/F12 medium containing 10% FBS and 300 μg/ml G418. When the confluence reached about 90%, the culture supernatant was discarded. […] 2 ml DMEM/F12 medium containing 10% FBS and 300 μg/ml G418 was added for resuspension, and the number of cells was counted. […] Dulaglutide (Trade name: Trulicity®)) were diluted with DMEM/F12 medium containing 1% BSA to a series of defined concentration, 27 added into cell culture wells at 100 μl/well, and detected after stimulation for 6 h. The samples were detected according to the specification of Lucifersae reporter kit (Ray Biotech, 29 Cat: 68-LuciR-5200). […]
# [2] = cited from earlier work
# T1 sequence (P43220 24-463): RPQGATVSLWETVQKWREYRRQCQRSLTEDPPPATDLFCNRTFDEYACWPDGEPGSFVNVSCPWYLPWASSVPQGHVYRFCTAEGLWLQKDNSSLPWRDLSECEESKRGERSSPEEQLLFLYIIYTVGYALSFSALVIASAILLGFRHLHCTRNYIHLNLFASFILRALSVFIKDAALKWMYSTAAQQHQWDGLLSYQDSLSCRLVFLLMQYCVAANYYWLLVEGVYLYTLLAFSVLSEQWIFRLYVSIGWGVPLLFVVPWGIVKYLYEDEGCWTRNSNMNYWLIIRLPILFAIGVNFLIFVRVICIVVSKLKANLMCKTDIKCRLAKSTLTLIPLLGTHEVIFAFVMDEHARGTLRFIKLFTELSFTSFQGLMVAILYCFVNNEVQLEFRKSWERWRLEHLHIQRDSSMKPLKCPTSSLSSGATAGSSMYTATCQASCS
molecule,measurement,setting,value
CCCCCCCCCCCCCCCC(=O)N[C@@H](CCC(=O)NCCCC[C@H](NC(=O)[C@H](CC(=O)O)NC(=O)[C@H](CO)NC(=O)[C@@H](NC(=O)[C@H](Cc1ccccc1)NC(=O)[C@@H](NC(=O)CNC(=O)[C@H](CCC(=O)O)NC(=O)[C@H](CO)NC(=O)[C@@H](N)Cc1ccc(O)cc1)[C@@H](C)O)[C@@H](C)O)C(=O)N[C@@H](CO)C(=O)N[C@@H](CCCCN)C(=O)N[C@@H](Cc1ccc(O)cc1)C(=O)N[C@@H](CC(C)C)C(=O)N[C@@H](CC(=O)O)C(=O)N[C@@H](CO)C(=O)N[C@@H](CCC(N)=O)C(=O)N[C@@H](C)C(=O)N[C@@H](C)C(=O)N[C@@H](CCC(N)=O)C(=O)N[C@@H](CC(=O)O)C(=O)N[C@@H](Cc1ccccc1)C(=O)N[C@H](C(=O)N[C@@H](CCC(N)=O)C(=O)N[C@@H](Cc1c[nH]c2ccccc12)C(=O)N[C@@H](CC(C)C)C(=O)N[C@@H](CC(C)C)C(=O)N[C@@H](C)C(=O)NCC(=O)NCC(=O)N1CCC[C@H]1C(=O)N[C@@H](CO)C(=O)N[C@@H](CO)C(=O)NCC(=O)N[C@@H](C)C(=O)N1CCC[C@H]1C(=O)N1CCC[C@H]1C(=O)N1CCC[C@H]1C(=O)N[C@@H](CO)C(N)=O)C(C)C)C(=O)O [P3YELAN] (H-YSEGTFTSDK([γGlu-Palmitoyl])SKYLDSQAAQDFVQWLLAGGPSSGAPPPS-NH2),residual GLP-1R agonist activity over time in serum,[1],maintains a higher GLP-1R agonist activity in a long time
Dulaglutide,EC50,GLP-1R,0.01 nM
Semeglutide,average clinical weight loss,[2]; 0.5 mg treatment group,4.2 kg
same,average clinical weight loss,[2]; 1.0 mg treatment group,5.5 kg
